Measurements: US20190343190A1, “MATERIALS INCLUDING POLYMERIC FIBERS INCORPORATING MICROCAPSULES OR NANOCAPSULES INCLUDING AN ESSENTIAL OIL” (President and Fellows of Harvard College, priority 2016, published 2019)

Experiments:
[1] = Polystyrene-water partition of citral; assay type: physicochemical
From the text: The polymer matrix should not dissolve through bulk degradation or boundary degradation as it is very inert and unreactive, plus divinylbenzene provides additional stability. […] This is extremely high: its predicts the existence of approximately 5000 molecules of citral within the nanocapsule core or polystyrene shell for every molecule in surrounding water. This dictates a fixed equilibrium between concentration in polystyrene nanocapsule Cp and surrounding water Cw given by the equation: Cp/Cw=10^3.7=5011

leucine dehydrogenase = leucine dehydrogenase (Bacillus subtilis, UniProt P54531); conditions: cited from earlier work
Chain of leucine dehydrogenase (P54531 whole entry): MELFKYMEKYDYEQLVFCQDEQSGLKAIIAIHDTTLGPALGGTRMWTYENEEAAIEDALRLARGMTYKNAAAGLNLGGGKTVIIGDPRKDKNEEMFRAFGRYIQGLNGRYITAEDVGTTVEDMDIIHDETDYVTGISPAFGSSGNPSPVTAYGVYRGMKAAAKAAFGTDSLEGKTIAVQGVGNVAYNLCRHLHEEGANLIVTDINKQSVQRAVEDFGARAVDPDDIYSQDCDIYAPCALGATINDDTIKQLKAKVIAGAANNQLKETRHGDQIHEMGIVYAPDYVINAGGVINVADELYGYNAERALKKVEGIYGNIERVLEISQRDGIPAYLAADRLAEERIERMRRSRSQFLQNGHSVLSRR

## CC(C)=CCCC(C)=CC=O [citral]
[1]
  Molecules within the nanocapsule core or polystyrene shell for every molecule in surrounding water: approximately 5000
Leucine dehydrogenase
  Binding affinity compared with branched chain amino acids: higher binding affinity
